According to US20140024638A1, “TREATMENT OF COGNITIVE DYSFUNCTION IN SCHIZOPHRENIA” (TARGACEPT, INC., priority 2011, published 2014):

How the values were obtained:
[1] = in vivo; cited from earlier work
[2] = tested on: patients with schizophrenia; assay: CogState 1-Back task (working memory), Phase 2 trial; assay type: in vivo, human; settings: for CogState 1-Back: Mean (SE): tobacco users meeting data integrity criteria; for CogState 1-Back: Mean (SEM): total population, subjects meeting data integrity criteria
Experimental: (§1) The double blind, placebo controlled Phase 2 trial was conducted at 7 sites in the United States and 12 sites in India. […] Of the randomized patients, approximately 69% were male and approximately 46% were users of tobacco products. […] The primary efficacy outcome measure was GMLT, and the trial included a number of other scales as secondary efficacy outcome measures.

[3] = tested on: patients with schizophrenia; assay: Phase 2 clinical proof of concept trial, overall efficacy; assay type: in vivo, human; settings: Phase 2 trial
Experimental: as §1
The GMLT is a computerized test designed to assess executive function (the ability to organize cognitive processes, including the ability to plan, prioritize, stop and start activities, shift from one activity to another activity and to monitor one's own behavior). Impaired executive function is thought to be an important aspect of cognitive dysfunction in schizophrenia.

[4] = tested on: patients with schizophrenia; assay: CogState 1-Card Learning task (visual learning), Phase 2 trial; assay type: in vivo, human; settings: for CogState 1-Card Learning: Mean (SE): tobacco users meeting data integrity criteria; for CogState 1-Card Learning: Mean (SEM): total population, subjects meeting data integrity criteria
Experimental: as §1

α7 NNR receptor = α7 NNR receptor (Homo sapiens, UniProt P36544); assay: agonism at the α7 NNR receptor; assay type: biochemical
[5] = in vivo; cited from earlier work; remark: listed apart in the source
[6] = tested on: patients with schizophrenia; assay: Scale for Assessment of Negative Symptoms (SANS), Phase 2 trial; assay type: in vivo, human; settings: for SANS TOTAL SCORE: Adjusted Mean / SANS TOTAL SCORE: Mean Difference ± SE between TC-5619 and Placebo (Placebo-TC5619): All Patients; for SANS: Mean (SE): tobacco users; for SANS: Mean (SEM): total population
Experimental: as §1

[7] = tested on: patients with schizophrenia; assay: Clinical Global Impression - Severity (CGI-S), Phase 2 trial; assay type: in vivo, human; settings: for CGI-SEVERITY: Adjusted Mean / CGI-SEVERITY: Mean Difference ± SE between TC-5619 and Placebo (Placebo-TC5619): All Patients; for CGI-S: Mean (SE): tobacco users; for CGI-S: Mean (SEM): total population
Experimental: as §1

[8] = tested on: patients with schizophrenia; assay: CogState Identification task (attention), Phase 2 trial; assay type: in vivo, human; settings: for CogState Identification: Mean (SE): tobacco users meeting data integrity criteria
Experimental: as §1

Sequence of α7 NNR receptor (P36544 23-502): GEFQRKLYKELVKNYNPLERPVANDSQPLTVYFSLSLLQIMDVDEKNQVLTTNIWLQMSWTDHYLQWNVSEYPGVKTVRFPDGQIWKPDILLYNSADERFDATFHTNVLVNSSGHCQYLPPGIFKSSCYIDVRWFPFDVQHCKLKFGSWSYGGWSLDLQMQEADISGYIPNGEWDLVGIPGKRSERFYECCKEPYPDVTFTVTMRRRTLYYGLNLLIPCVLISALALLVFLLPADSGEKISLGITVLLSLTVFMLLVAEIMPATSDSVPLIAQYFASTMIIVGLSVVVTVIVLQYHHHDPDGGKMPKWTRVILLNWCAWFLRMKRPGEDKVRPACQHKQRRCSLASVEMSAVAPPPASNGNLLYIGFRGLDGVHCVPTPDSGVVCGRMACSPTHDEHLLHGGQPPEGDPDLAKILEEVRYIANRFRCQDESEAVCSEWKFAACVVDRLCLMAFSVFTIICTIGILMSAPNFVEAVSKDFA

O=C(N[C@@H]1C2CCN(CC2)[C@H]1Cc1cccnc1)c1cc2ccccc2o1 (single isomer, unassigned) [TC-5619]
efficacy in preclinical models of schizophrenia [1]: effective
CogState 1-back (working memory), result in words ([2]; in vivo): statistically significant results of improvement
CogState 1-Back: Mean (SE) ([2]; Week 4, 1 mg daily, 1-tailed p = 0.605): 0.005 (0.021); p = 0.605
CogState 1-Back: Mean (SE) ([2]; Week 8, 5 mg daily, 1-tailed p = 0.329): −0.009 (0.021); p = 0.329
CogState 1-Back: Mean (SE) ([2]; Week 12, 25 mg daily, 1-tailed p = 0.020): −0.042 (0.020); p = 0.020
CogState 1-Back: Mean (SEM) ([2]; Week 4, 1 mg daily, 1-tailed p = 0.691): 0.007 (0.014); p = 0.691
CogState 1-Back: Mean (SEM) ([2]; Week 8, 5 mg daily, 1-tailed p = 0.647): 0.005 (0.015); p = 0.647
CogState 1-Back: Mean (SEM) ([2]; Week 12, 25 mg daily, 1-tailed p = 0.042): −0.024 (0.014); p = 0.042
efficacy by tobacco use [3]: showed efficacy primarily in tobacco users
efficacy in Cognitive Deficits in Schizophrenia (GMLT, SANS, CGI-Global, SGI-Cog, CogState objective cognitive endpoints) ([3]; add-on to quetiapine or risperidone, 12 weeks, 1/5/25 mg daily): positive efficacy
CogState 1-card learning (visual learning), result in words ([4]; in vivo): statistically significant results of improvement
CogState 1-Card Learning: Mean (SE) ([4]; Week 4, 1 mg daily, 1-tailed p = 0.615): −0.008 (0.027); p = 0.615
CogState 1-Card Learning: Mean (SE) ([4]; Week 8, 5 mg daily, 1-tailed p = 0.778): −0.021; 0.028); p = 0.778
CogState 1-Card Learning: Mean (SE) ([4]; Week 12, 25 mg daily, 1-tailed p = 0.338): 0.012 (0.028); p = 0.338
CogState 1-Card Learning: Mean (SEM) ([4]; Week 4, 1 mg daily, 1-tailed P = 0.660): −0.008 (0.019); P = 0.660 ^
CogState 1-Card Learning: Mean (SEM) ([4]; Week 8, 5 mg daily, 1-tailed P = 0.899): −0.024 (0.019); P = 0.899 ^
CogState 1-Card Learning: Mean (SEM) ([4]; Week 12, 25 mg daily, 1-tailed P = 0.841): −0.019 (0.020); P = 0.841 ^
agonist character at the α7 NNR (α7 NNR receptor; listed as (2S,3R)—N-(2-((3-pyridinyl)methyl)-1-azabicyclo[2.2.2]oct-3-yl)benzofuran-2-carb): selective alpha7 NNR agonist
agonist character at the α7 NNR (α7 NNR receptor; listed as Compound A): highly selective, full agonist
separation between EC50 and the IC50 (for residual inhibition) (α7 NNR receptor; α7 NNR receptor): good separation
efficacy in preclinical models of memory [5]: had efficacy
SANS TOTAL SCORE: Adjusted Mean ([6]; Week 1, 1 mg daily, SE 0.93, placebo −0.92): −1.20
SANS TOTAL SCORE: Mean Difference ± SE between TC-5619 and Placebo (Placebo-TC5619) ([6]; Week 1, 1 mg daily, one-sided 90% CI (−0.77, ∞), one-sided P 0.3647): 0.28 ± 0.82
SANS TOTAL SCORE: Adjusted Mean ([6]; Week 4, 1 mg daily, SE 1.11, placebo −2.74): −3.52
SANS TOTAL SCORE: Mean Difference ± SE between TC-5619 and Placebo (Placebo-TC5619) ([6]; Week 4, 1 mg daily, one-sided 90% CI (−0.74, ∞), one-sided P 0.2547): 0.78 ± 1.18
SANS TOTAL SCORE: Adjusted Mean ([6]; Week 8, 5 mg daily, SE 1.25, placebo −5.55): −7.25
SANS TOTAL SCORE: Mean Difference ± SE between TC-5619 and Placebo (Placebo-TC5619) ([6]; Week 8, 5 mg daily, one-sided 90% CI (−0.14, ∞), one-sided P 0.1184): 1.71 ± 1.44
SANS TOTAL SCORE: Adjusted Mean ([6]; Week 12, 25 mg daily, SE 1.40, placebo −6.23): −9.93
SANS TOTAL SCORE: Mean Difference ± SE between TC-5619 and Placebo (Placebo-TC5619) ([6]; Week 12, 25 mg daily, one-sided 90% CI (1.53, ∞), one-sided P 0.0147): 3.70 ± 1.68
SANS, result in words ([6]; secondary outcome measure, investigator assessment of negative symptoms): encouraging efficacy signals
SANS: Mean (SE) ([6]; Week 4, 1 mg daily, 1-tailed p = 0.098): 2.74 (2.10); p = 0.098
SANS: Mean (SE) ([6]; Week 8, 5 mg daily, 1-tailed p = 0.054): 4.00 (2.45); p = 0.054
SANS: Mean (SE) ([6]; Week 12, 25 mg daily, 1-tailed p = 0.033): 4.86 (2.58); p = 0.033
SANS: Mean (SEM) ([6]; Week 4, 1 mg daily, 1-tailed p = 0.255): 0.78 (1.18); p = 0.255
SANS: Mean (SEM) ([6]; Week 8, 5 mg daily, 1-tailed p = 0.118): 1.71 (1.44); p = 0.118
SANS: Mean (SEM) ([6]; Week 12, 25 mg daily, 1-tailed p = 0.015): 3.70 (1.68); p = 0.015
CGI-SEVERITY: Adjusted Mean ([7]; Week 1, 1 mg daily, SE 0.03, placebo −0.05): −0.03
CGI-SEVERITY: Mean Difference ± SE between TC-5619 and Placebo (Placebo-TC5619) ([7]; Week 1, 1 mg daily, one-sided 90% CI (−0.07, ∞), one-sided P 0.7588): −0.02 ± 0.03
CGI-SEVERITY: Adjusted Mean ([7]; Week 4, 1 mg daily, SE 0.05, placebo −0.09): −0.06
CGI-SEVERITY: Mean Difference ± SE between TC-5619 and Placebo (Placebo-TC5619) ([7]; Week 4, 1 mg daily, one-sided 90% CI (−0.10, ∞), one-sided P 0.6737): −0.02 ± 0.06
CGI-SEVERITY: Adjusted Mean ([7]; Week 8, 5 mg daily, SE 0.05, placebo −0.24): −0.23
CGI-SEVERITY: Mean Difference ± SE between TC-5619 and Placebo (Placebo-TC5619) ([7]; Week 8, 5 mg daily, one-sided 90% CI (−0.09, ∞), one-sided P 0.5440): −0.01 ± 0.06
CGI-SEVERITY: Adjusted Mean ([7]; Week 12, 25 mg daily, SE 0.07, placebo −0.29): −0.31
CGI-SEVERITY: Mean Difference ± SE between TC-5619 and Placebo (Placebo-TC5619) ([7]; Week 12, 25 mg daily, one-sided 90% CI (−0.11, ∞), one-sided P 0.4495): 0.01 ± 0.09
Clinical Global Impression - Severity, result in words ([7]; secondary outcome measure): did not demonstrate a drug effect
CGI-S: Mean (SE) ([7]; Week 4, 1 mg daily, 1-tailed p = 0.434): 0.02 (0.09); p = 0.434
CGI-S: Mean (SE) ([7]; Week 8, 5 mg daily, 1-tailed p = 0.224): 0.08 (0.10); p = 0.224
CGI-S: Mean (SE) ([7]; Week 12, 25 mg daily, 1-tailed p = 0.308): 0.07 (0.14); p = 0.308
CGI-S: Mean (SEM) ([7]; Week 4, 1 mg daily, 1-tailed p = 0.674): −0.02 (0.06); p = 0.674
CGI-S: Mean (SEM) ([7]; Week 8, 5 mg daily, 1-tailed p = 0.544): −0.01 (0.06); p = 0.544
CGI-S: Mean (SEM) ([7]; Week 12, 25 mg daily, 1-tailed p = 0.450): 0.01 (0.09); p = 0.450
CogState identification (attention), result in words ([8]; in vivo): statistically significant results of improvement
CogState Identification: Mean (SE) ([8]; Week 4, 1 mg daily, 1-tailed p = 0.097): −0.021 (0.016); p = 0.097
CogState Identification: Mean (SE) ([8]; Week 8, 5 mg daily, 1-tailed p = 0.261): −0.011 (0.017); p = 0.261
